Test results reported in patent EP0381335A1, “Antiviral agent and novel nucleoside” (TANABE SEIYAKU CO., LTD., priority 1989, dated 1990).
Like-named read-outs stand apart in the source and are kept apart here.

Tests used:
[1] = test system: HIV; experiment: Anti-HIV assay: protection of HIV-infected MT-4 cells against cytopathic effect (trypan blue exclusion / MTT method); type: cell-based
Experimental: (§1) The anti-HIV activity of the agents that are subject of the present invention was measured according to the method of E. De Clercq et al. (The Journal of Virological Methods, 16 : 171 - 185 (1987) and The Journal of Virological Methods, 20 : 309-321 (1988)).
(§2) MT-4 cells of a 24 hours-old culture were suspended at 5 x 10⁵ cells per ml. Of this suspension, 2-ml portions were divided over polyisopropylene 2059 Falcon culture tubes (Becton Dickinson). The MT-4 cell suspensions were then centrifuged for 10 min at 140 x g and the supernatants were discarded. The MT-4 cell pellets were infected with 200 µl of a 1:5 HIV stock solution (titer 10³ CCID₅₀ ml; i.e., finally 10 CCID₅₀ well) in RPMI medium (composition as described above). Control MT-4 cell pellets were mock-infected with 200 µl RPMI medium. The culture tubes were then capsulated and subsequently incubated at 37 °C for 1.5 hours, upon which 1.8 ml of RPMI medium was added to each tube. The HIV-infected and mock-infected MT-4 cells were each pooled in two 45-ml centrifuge tubes.
(§3) Varying dilutions of the test compounds in RPMI medium were added in 100-µl volumes to the wells of a flat bottom, 96-well plastic microtiter tray (Sterilin Ltd. Teddington, Middlesex, England).
(§4) Of the HIV-infected or mock-infected MT-4 cell suspensions 100-µl volumes were added to the wells. The cell cultures were then incubated at 37 °C in a 5 % CO₂/95 % air humidified atmosphere. The cells remained in contact with the test compounds during the whole incubation period. Five days after infection the viability of the cells was examined microscopically in a hematocytometer by the trypan blue dye exclusion method.
(§5) Alternatively, viability of the cells was determined by the tetrazolium-based colorimetric method (MTT method) as described in the Journal of Virological Methods, 20 : 309 - 321 (1988).
(§6) Flat bottom, 96-well plastic mictrotiter trays (Falcon, Becton Dickinson, Mountain View, CA) were filled with 100 µl of complete medium using a Titertek® Multidrop dispenser (Flow Laboratories). This eight-channel dispenser could fill a microtiter tray in less than 10 s. Subsequently, stock solutions (10 x final test concentration) of compounds were added in 25 µl volumes to two series of triplicate wells so as to allow simultaneous evaluation of their effects on HIV- and mock-infected cells. Serial five-fold dilutions were made directly in the microtiter trays using an eight-channel Titertek® pipette (FLow Laboratories). Untreated control HIV- and mock-infected cell samples were included for each compound.
(§7) Exponentially growing MT-4 cells were centrifuged for 10 min at 140 x g and the supernatants were discarded. The pellet was either infected with 100 CCID₅₀ or mock-infected. The MT-4 cells were resuspended at 4 x 10⁵ cells/ml in two flasks which were connected with an autoclavable dispensing cassette of a Titertek® Multidrop dispenser. Under slight magnetic stirring 100-µl volumes were then transferred to the microtiter tray wells. The outer row wells were filled with 100 µl of medium. The cell cultures were incubated at 37 °C in a humidified atmosphere of 5 % CO₂ in air. The cells remained in contact with the test compounds during the whole incubation period. Five days after infection the viability of mock- and HIV infected cells was examined either microscopically in a hemacytometer by the trypan blue exclusion method or spectrophotometrically by the MTT method.
(§8) The MTT method is based on the reduction of the yellow coloured 3-(4,5-dimethylthiazol-2-yl)-2,5-diphenyltetrazolium bromide (MTT) (Sigma Chemical Co., St. Louis, MO) by mitochondrial dehydrogenases of metabolically active cells to a blue formazan which can be measured spectrophotometrically. Therefore, to each well of the microtiter trays, 20 µl of a solution of MTT (7.5 mg/ml) in phosphate-buffered saline was added using the Titertek® Multidrop. The trays were further incubated at 37 °C in a CO₂ incubator for the indicated times. […]

[2] = test system: MT-4 cells; experiment: Cytotoxicity in mock-infected MT-4 cells (trypan blue exclusion / MTT method); type: cell-based; details: for HIV (µM) TD₅₀: human, 5 days
Experimental: as §1, §2, §3, §4, §5, §6, §7, §8

[3] = Human immunodeficiency virus 1, MT4, effective amount necessary for permitting the cells infected with HIV to live to the 5th day after infection, read-out: ED₅₀
[4] = Human immunodeficiency virus 1, MT4, 120 h, HIV-infected MT-4 cells, five days after infection, MTT method, dose achieving 50 % protection, read-out: HIV (µM) ED₅₀

| Structure (SMILES) | EC50 [1, 3] | EC50 [1, 4] | cytotoxicity ([2]; at the concentration of 500 µM) | cytotoxicity ([2]; at the concentration of 125 µM) | HIV (µM) TD₅₀ [2] |
| --- | --- | --- | --- | --- | --- |
| NO[C@H]1C[C@H](n2ccc(N)nc2=O)O[C@@H]1CO [3′-O-amino-2′-deoxycytidine] | 61 µM |  | no cytotoxicity appeared |  |  |
| Cc1cn([C@H]2C[C@H](ONC=O)[C@@H](CO)O2)c(=O)[nH]c1=O [compound 1, 3′-O-formamidothymidine] |  | 13 µM |  |  | 144 µM |
| C=NO[C@H]1C[C@H](n2cc(C)c(=O)[nH]c2=O)O[C@@H]1CO [compound 2, 3′-O-methylideneaminothymidine] |  | 17 µM |  |  | 106 µM |
| NO[C@H]1C[C@H](n2cnc3c(N)ncnc32)O[C@@H]1CO [compound 4, 9-(3-O-amino-2-deoxy-β-D-erythro-pentofuranosyl)adenine] | 32 µM | 32 µM |  |  | 1000 µM |

Second part, led by results:

| EC50 [1, 3] | EC50 [1, 4] | Structure (SMILES) | cytotoxicity ([2]; at the concentration of 500 µM) | cytotoxicity ([2]; at the concentration of 125 µM) | HIV (µM) TD₅₀ [2] |
| --- | --- | --- | --- | --- | --- |
| 23 µM |  | Cc1cn([C@H]2C[C@H](ON)[C@@H](CO)O2)c(=O)[nH]c1=O [3′-O-aminothymidine] |  | only slight cytotoxicity appeared |  |
|  | 32 µM | CC(C)=NO[C@H]1C[C@H](n2cc(C)c(=O)[nH]c2=O)O[C@@H]1CO [compound 3, 3′-O-isopropylideneaminothymidine] |  |  | 313 µM |
|  | 2.17 µM | NO[C@H]1C[C@H](n2cnc3c(=O)[nH]c(N)nc32)O[C@@H]1CO [compound 5, 9-(3-O-amino-2-deoxy-β-D-erythro-pentofuranosyl)guanine] |  |  | 74.03 µM |
